{"source": "patent US12171224B2", "about": "“Choline salt and ammonium-free adjuvants for water conditioning and agricultural formulations” (SPECIALTY OPERATIONS FRANCE, priority 2015, dated 2024)", "settings_in_all_cases": "1000 ppm water, after 21 days", "key": {"Yellow foxtail": {"tested_on": "Yellow foxtail", "experiment": "Greenhouse weed control study, yellow foxtail", "procedure": "(§1) A greenhouse study was conducted to evaluate efficacy benefits of several candidates.\n(§2) Procedure: Product application was made using a DeVries spray booth calibrated to 10 gpa, 40 psi with flat-fan AIXR11002 nozzle. Test plants were placed in a certain zone (Zone 3) of research greenhouse on a wire-mesh raised bench and arranged in a randomized complete block design. […] Environmental conditions averaged high temperature 87° F. to low temperature of 75° F. during trial dates. Average humidity levels ranged from 40% to 90%. Test plants received natural lighting for duration of trial. Test plants were soil watered every twenty-four (24) hours as needed.\n(§3) Weeds were evaluated for percent control at 3, 7, 14, and 21-days following application.\n(§4) Rating scale used; 0 indicating no control/injury up to 100 indicating complete control of weed species as compared to the untreated check."}, "Velvet leaf": {"tested_on": "Velvet leaf", "experiment": "Greenhouse weed control study, velvetleaf", "procedure": "as §1, §2, §3, §4"}, "Weeds": {"tested_on": "Weeds", "experiment": "Greenhouse weed control study, average over the four weeds", "procedure": "as §1, §2, §3, §4"}, "Ivyleaf morning glory": {"tested_on": "Ivyleaf morning glory", "experiment": "Greenhouse weed control study, ivyleaf morning glory", "procedure": "as §1, §2, §3, §4"}, "Common barnyardgrass": {"tested_on": "Common barnyardgrass", "experiment": "Greenhouse weed control study, common barnyardgrass", "procedure": "as §1, §2, §3, §4"}, "[1]": {"settings": "(55% soln) 0.18%, use rate 0.18 % w/w"}, "[2]": {"settings": "(55% soln) 0.45%, use rate 0.45 % w/w"}, "[3]": {"settings": "(80% liquid) 1%, use rate 1 % w/w"}}}
{"molecule": "O=C(O)CC(O)(CC(=O)O)C(=O)O", "note": "[Citric acid]", "values": [{"measurement": "Yellow foxtail percent control", "setting": "Yellow foxtail; [1]", "result": 36.7, "unit": "%"}, {"measurement": "Yellow foxtail percent control", "setting": "Yellow foxtail; [2]", "result": 50, "unit": "%"}, {"measurement": "Velvet leaf percent control", "setting": "Velvet leaf; [1]", "result": 15, "unit": "%"}, {"measurement": "Velvet leaf percent control", "setting": "Velvet leaf; [2]", "result": 15, "unit": "%"}, {"measurement": "Average percent control", "setting": "Weeds; [1]", "result": 37.925, "unit": "%"}, {"measurement": "Average percent control", "setting": "Weeds; [2]", "result": 36.25, "unit": "%"}, {"measurement": "Ivyleaf morning glory percent control", "setting": "Ivyleaf morning glory; [1]", "result": 16.7, "unit": "%"}, {"measurement": "Ivyleaf morning glory percent control", "setting": "Ivyleaf morning glory; [2]", "result": 20, "unit": "%"}, {"measurement": "Common barnyardgrass percent control", "setting": "Common barnyardgrass; [1]", "result": 83.3, "unit": "%"}, {"measurement": "Common barnyardgrass percent control", "setting": "Common barnyardgrass; [2]", "result": 60, "unit": "%"}]}
{"molecule": "N.N.O=S(=O)(O)O", "note": "[Ammonium Sulfate]", "values": [{"measurement": "Yellow foxtail percent control", "setting": "Yellow foxtail; 1%, use rate 2.5 % w/w", "result": 40, "unit": "%"}, {"measurement": "Yellow foxtail percent control", "setting": "Yellow foxtail; 2%, use rate 5 % w/w", "result": 40, "unit": "%"}, {"measurement": "Velvet leaf percent control", "setting": "Velvet leaf; 1%, use rate 2.5 % w/w", "result": 18.3, "unit": "%"}, {"measurement": "Velvet leaf percent control", "setting": "Velvet leaf; 2%, use rate 5 % w/w", "result": 18.3, "unit": "%"}, {"measurement": "Average percent control", "setting": "Weeds; 1%, use rate 2.5 % w/w", "result": 39.575, "unit": "%"}, {"measurement": "Average percent control", "setting": "Weeds; 2%, use rate 5 % w/w", "result": 41.65, "unit": "%"}, {"measurement": "Ivyleaf morning glory percent control", "setting": "Ivyleaf morning glory; 1%, use rate 2.5 % w/w", "result": 20, "unit": "%"}, {"measurement": "Ivyleaf morning glory percent control", "setting": "Ivyleaf morning glory; 2%, use rate 5 % w/w", "result": 18.3, "unit": "%"}, {"measurement": "Common barnyardgrass percent control", "setting": "Common barnyardgrass; 1%, use rate 2.5 % w/w", "result": 80, "unit": "%"}, {"measurement": "Common barnyardgrass percent control", "setting": "Common barnyardgrass; 2%, use rate 5 % w/w", "result": 90, "unit": "%"}]}
{"molecule": "Choline bicarbonate", "values": [{"measurement": "Yellow foxtail percent control", "setting": "Yellow foxtail; [3]", "result": 83.3, "unit": "%"}, {"measurement": "Velvet leaf percent control", "setting": "Velvet leaf; [3]", "result": 15, "unit": "%"}, {"measurement": "Average percent control", "setting": "Weeds; [3]", "result": 34.575, "unit": "%"}, {"measurement": "Ivyleaf morning glory percent control", "setting": "Ivyleaf morning glory; [3]", "result": 10, "unit": "%"}, {"measurement": "Common barnyardgrass percent control", "setting": "Common barnyardgrass; [3]", "result": 30, "unit": "%"}]}
{"molecule": "C[N+](C)(C)CCO.O=C([O-])CC(O)(CC(=O)O)C(=O)O", "note": "[Choline Dihydrogen Citrate]", "values": [{"measurement": "Yellow foxtail percent control", "setting": "Yellow foxtail; 0.4%, use rate 0.4 % w/w", "result": 40, "unit": "%"}, {"measurement": "Velvet leaf percent control", "setting": "Velvet leaf; 0.4%, use rate 0.4 % w/w", "result": 20, "unit": "%"}, {"measurement": "Average percent control", "setting": "Weeds; 0.4%, use rate 0.4 % w/w", "result": 42.5, "unit": "%"}, {"measurement": "Ivyleaf morning glory percent control", "setting": "Ivyleaf morning glory; 0.4%, use rate 0.4 % w/w", "result": 26.7, "unit": "%"}, {"measurement": "Common barnyardgrass percent control", "setting": "Common barnyardgrass; 0.4%, use rate 0.4 % w/w", "result": 83.3, "unit": "%"}]}
